Test results published in US20220298540A1, “METHOD AND REAGENTS FOR DETECTING LUCIFERASE ACTIVITY” (OBSCHESATVO S OGRANICHENNOY OTVETSTVENNOSTYU "PLANTA", priority 2019, published 2022).

How the values were obtained:
[1] = Storage stability of freeze-dried substrate; assay type: physicochemical; conditions: −20° C.
Source text: This new luciferin isolated by the present inventors has a unique structure that distinguishes it from all previously described natural luciferins. Thus, the basis of the Odontosyllis worm luciferin molecule is a condensed heterocycle—thieno[3,2-f]thiochromene consisting of two six-membered and one five-membered rings. Such complex condensed tricyclic structures have not previously been found as bioluminescent reaction substrates. It is also worth noting that thiopyran is named in the composition of natural bioluminescent substrates for the first time. Odontosyllis worm luciferin is a strongly polar molecule and represents a strong acid, since this molecule comprises three carboxyl substituents and also carries a sulfonic acid residue. Freeze-dried substrate is stored at −20° C. without decrease in activity for at least 30 days, more often at least 60 days, normally at least a year.

[2] = tested on: highly purified luciferase; assay: In vitro bioluminescence reaction, conversion of luciferin into oxyluciferin with highly purified luciferase; assay type: biochemical, Odontosyllis undecimdonta; conditions: 60 μL pure luciferin fraction, 40 μL tris-buffered saline, 20 μL highly purified luciferase; no luminescence in control tube
Method: Each tube contained 60 μL of pure luciferin fraction, 40 μL of tris-buffered saline and 20 μL of highly purified luciferase (see section below) or tris-buffered saline in case of negative control. […] The reaction was monitored by using 5 μl aliquots of the reaction and control mixtures, followed by stopping the reaction in 0, 5, 15, 30, 60, 120, 180, and 300 min by adding 20 μl of methanol and centrifugation, after that, the reversed-phase HPLC was used to analyze the supernatants. A Shim-Pack XR-ODS column (3.0×75 mm, 2.2 μm) was used in combination with a Nexera X2 system (Shimadzu, Japan). Solvent A is a 0.1% formic acid solution, pH 4.9, solvent B is acetonitrile. Elution was carried out in a linear gradient with the solvent B concentration from 1 to 20% (15 min) at a flow rate of 0.7 ml/min. Purified luciferase samples were obtained as a result of sequential purification of an aqueous extract of lyophilized worms: ion-exchange chromatography in a HiTrap Fast Flow column with DEAE-Sepharose (GE Healthcare, Uppsala, Sweden), ultrafiltration in an Amicon® Ultra centrifugal filter (Merck Millipore, Germany) and gel filtration chromatography in a Superdex 200 column ([…]).

[3] = Effect of light on luciferin; assay type: physicochemical; conditions: confirmed experimentally
Source text: Formation of bioluminescence depends on the amount and preservation of luciferase in biological samples.

[4] = tested on: recombinant luciferase Odontosyllis undecimdonta; assay: Detecting luciferase in lysates of mammalian cells comprising recombinant luciferase; conditions: 1 μg in 100 μl tris-buffered saline pH 7.5, aliquots added to cell lysates with recombinant luciferase; FIG. 11
Method: Recombinant luciferase was obtained from luciferase complementary DNA synthesized as a linear double-stranded DNA fragment (Twist Biosciences, USA). Cloning was performed using the Golden Gate method. Eukaryotic cell expression plasmids were assembled into the plasmid of the MoClo pICH47742 kit as a backbone, and the following parts were cloned in level 0 vectors: cytomegalovirus promoter, luciferase candidate gene, termination codon comprising a part of DNA, and SV40 polyadenylation terminator. HEK293NT cells were transfected with FuGene 6 reagent plasmid (Promega, Fitchburg, Wis., USA) according to the manufacturer's protocol. The transfected cells were grown under standard conditions.
Lysates of mammalian cells comprising recombinant luciferase Odontosyllis undecimdonta were used as biological samples. Cell lysates were obtained as described above in the section “Obtaining native luciferase and recombinant luciferase samples”.

[5] = tested on: Odontosyllis undecimdonta worm luciferase; assay: Detecting bioluminescence in cold extracts of Odontosyllis undecimdonta worms; assay type: biochemical; conditions: 1 μg in 100 μl tris-buffered saline pH 7.5, aliquots added to cold worm extracts; FIG. 12, FIG. 13
Method: Adding 5 ml of phosphate buffer (5 mM sodium phosphate buffer, pH 7.4) to 200 mg of lyophilized worms. Pipetting the mixture into liquid nitrogen to create small drops of frozen material, then grounding them in a mortar. Adding the frozen powder to 15 ml of phosphate buffer (5 mM sodium phosphate buffer, pH 7.4) and incubating for 40 minutes in an ice bath while stirring regularly. Centrifuging the mixture at 40,000 g (4° C.) for 40 min. Collecting the supernatant comprising luciferase, luciferin and oxyluciferin, freezing the cell-free extract and storing at −70° C. […] Extracts of Odontosyllis undecimdonta worms were used as biological samples. […]

Structure (SMILES) | storage without decrease in activity [1] | radiation (luminescence) in the course of the reaction [2] | effect of light emission, especially the UV part of the spectrum [3] | luminescence of biological samples [4] | luminescence of biological samples [5]
O=C(O)C1=Cc2c(c(OS(=O)(=O)O)c(O)c3scc(C(=O)O)c23)SC1C(=O)O (stereo not drawn) [luciferin, 4-hydroxy-5-(sulfooxy)-7H-thieno[3,2-f]thiochromen-1,7,8-tricarboxylic acid] | at least 30 days | Radiation was observed | degradation and loss of functionality | detected | detected
O=C(O)C(=O)C1=C(C(=O)O)Cc2c(c(OS(=O)(=O)O)c(O)c3scc(C(=O)O)c23)S1 [pre-luciferin, 7-(carboxycarbonyl)-4-hydroxy-5-(sulfooxy)-9H-thieno[3,2-f]thiochromene-1,8-dicarboxylic acid] | – | – | – | – | detected
